Measured values as given in patent publication US12180192B2, “Modulators of THR-β and methods of use thereof” (ALIGOS THERAPEUTICS, INC., priority 2019, dated 2024).

Legend:
[1] = target: T1, human thyroid receptor beta ligand-binding domain (LBD) (Homo sapiens, UniProt P10828); experiment: TR-FRET thyroid receptor beta coactivator assay (THR biochemical assay, Assay 1); details: for EC50: THR-beta, TR-FRET coactivator assay, read-out: Activity category Assay 1 (EC50, THR-beta agonist); for Emax: Table 5, Assay 1, THRβ, read-out: Activity category Assay 1 THRβ (Emax)
T1 construct: purchased Invitrogen
T1 sequence (P10828 217-461 limits assumed): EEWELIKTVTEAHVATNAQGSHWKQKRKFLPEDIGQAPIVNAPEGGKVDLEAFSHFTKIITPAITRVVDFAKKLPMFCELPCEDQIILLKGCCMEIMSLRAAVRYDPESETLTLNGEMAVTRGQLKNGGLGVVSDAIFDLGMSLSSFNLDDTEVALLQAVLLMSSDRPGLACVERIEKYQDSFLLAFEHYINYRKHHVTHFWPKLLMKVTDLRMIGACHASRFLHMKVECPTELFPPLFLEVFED
Method in brief: (§1)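 GST-tagged human TRβ or TRα LBD, 1 nM final (stated for β), with fluorescein-SRC2-2 coactivator peptide (200 nM) and Tb-anti-GST antibody (2 nM). Agonists serially diluted, 1% DMSO final. 1 h incubation at rt in the dark; TR-FRET read as rise in fluorescein and drop in terbium emission.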

[2] = target: T2, human thyroid receptor alpha ligand-binding domain (LBD) (Homo sapiens, UniProt P10827); experiment: TR-FRET thyroid receptor alpha coactivator assay (THR biochemical assay, Assay 1); details: for EC50: Table 4, THR-alpha, read-out: Activity category Assay 1 (EC50, THR-alpha agonist activity); for Emax: Table 5, THRα, read-out: Activity category Assay 1 THRα (Emax)
T2 construct: purchased Invitrogen
Method in brief: as §1

THR beta = target: T3, THR beta (Homo sapiens, UniProt P10828); experiment: HEK293T THR beta/RXR luciferase reporter assay (Assay 2); type: cell-based; details: for Emax: HEK-293T, Table 5, Assay 2, THRβ, read-out: Activity category Assay 2 THRβ (Emax); for EC50: THR-beta, HEK293T reporter assay, read-out: Activity category Assay 2 (EC50, THR-beta agonist)
T3 construct: expressed in transfected cells; host or cells: HEK293T (ATCC CRL-3216)
T3 sequence (P10828 1-461): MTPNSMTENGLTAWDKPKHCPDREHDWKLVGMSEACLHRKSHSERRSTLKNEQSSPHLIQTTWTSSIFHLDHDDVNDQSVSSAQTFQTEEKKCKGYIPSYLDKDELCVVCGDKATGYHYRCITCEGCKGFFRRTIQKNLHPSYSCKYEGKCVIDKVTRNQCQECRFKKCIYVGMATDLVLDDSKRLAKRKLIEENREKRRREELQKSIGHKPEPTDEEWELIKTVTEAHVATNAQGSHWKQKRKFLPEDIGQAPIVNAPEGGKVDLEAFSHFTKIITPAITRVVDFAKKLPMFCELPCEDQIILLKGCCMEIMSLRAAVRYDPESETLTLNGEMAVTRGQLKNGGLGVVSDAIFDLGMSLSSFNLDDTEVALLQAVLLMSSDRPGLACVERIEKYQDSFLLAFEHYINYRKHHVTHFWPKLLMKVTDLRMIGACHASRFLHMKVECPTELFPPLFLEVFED
T3 sequence (P19793 1-462 partner): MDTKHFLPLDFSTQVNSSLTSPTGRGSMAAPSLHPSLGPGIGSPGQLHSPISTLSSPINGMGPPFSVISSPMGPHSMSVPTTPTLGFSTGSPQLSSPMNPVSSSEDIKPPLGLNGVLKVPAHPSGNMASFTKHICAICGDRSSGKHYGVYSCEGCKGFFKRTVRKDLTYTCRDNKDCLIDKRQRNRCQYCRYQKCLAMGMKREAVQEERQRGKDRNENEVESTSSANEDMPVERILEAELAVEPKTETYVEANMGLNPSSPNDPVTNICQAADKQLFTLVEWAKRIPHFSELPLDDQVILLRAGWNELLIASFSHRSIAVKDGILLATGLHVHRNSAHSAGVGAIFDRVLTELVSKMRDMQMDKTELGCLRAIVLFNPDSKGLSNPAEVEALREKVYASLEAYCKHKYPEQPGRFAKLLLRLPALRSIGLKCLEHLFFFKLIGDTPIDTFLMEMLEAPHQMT
Method in brief: (§2)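 HEK293T cells transiently transfected with TRE-luciferase reporter, RXR, and THR alpha or THR beta plasmid; ten five-fold compound dilutions from DMSO added for 18-24 h. One-Glo luminescence read; percent agonism normalized between negative and positive controls.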

THR alpha = target: T4, THR alpha (Homo sapiens, UniProt P10827); experiment: HEK293T THR alpha/RXR luciferase reporter assay (Assay 2); type: cell-based; details: Assay 2; for Emax: HEK-293T, Table 5, THRα, read-out: Activity category Assay 2 THRα (Emax); for EC50: Table 4, THR-alpha, read-out: Activity category Assay 2 (EC50, THR-alpha agonist activity)
T4 construct: expressed in transfected cells; host or cells: HEK293T (ATCC CRL-3216)
T4 sequence (P10827 1-410 isoform P10827-2): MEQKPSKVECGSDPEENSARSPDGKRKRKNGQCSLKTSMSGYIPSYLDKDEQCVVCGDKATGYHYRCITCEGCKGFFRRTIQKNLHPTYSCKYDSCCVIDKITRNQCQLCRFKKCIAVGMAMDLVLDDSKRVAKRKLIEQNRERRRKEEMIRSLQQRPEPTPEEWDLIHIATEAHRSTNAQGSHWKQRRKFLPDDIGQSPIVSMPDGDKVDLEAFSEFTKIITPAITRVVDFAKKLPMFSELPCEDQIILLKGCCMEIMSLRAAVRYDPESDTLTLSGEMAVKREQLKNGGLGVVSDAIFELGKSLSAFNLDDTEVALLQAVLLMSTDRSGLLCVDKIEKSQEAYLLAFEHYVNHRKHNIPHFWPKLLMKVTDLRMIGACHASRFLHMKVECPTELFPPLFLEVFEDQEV
T4 sequence (P19793 1-462 partner): T3 sequence (P19793 1-462 partner)
Method in brief: as §2

SMILES | EC50 [1] | Emax [1] | EC50 [2] | Emax [2] | Emax (THR beta) | EC50 (THR beta) | Emax (THR alpha) | EC50 (THR alpha)
CC(C)c1cc(Oc2c(Br)cc(-n3nc(N)c(=O)[nH]c3=O)cc2Br)n[nH]c1=O [Compound 81, 6-Amino-2-(3,5-dibromo-4-((5-isopropyl-6-oxo-1,6-dihydropyridazin-3-yl)oxy)phenyl)-1,2,4-triazine-3,5(2H,4H)-dione] | < 50 nM | 50 to 75% | < 50 nM | 50 to 75% | > 75% | < 50 nM | > 75% | < 50 nM
Cc1cc(-n2nc(N)c(=O)[nH]c2=O)cc(C)c1Cc1ccc2[nH]c(=O)n(C(C)C)c2c1 [Compound 149, 6-amino-2-(4-((3-isopropyl-2-oxo-2,3-dihydro-1H-benzo[d]imidazol-5-yl)methyl)-3,5-dimethylphenyl)-1,2,4-triazine-3,5(2H,4H)-dione] | < 50 nM | < 50% | < 50 nM | < 50% | > 75% | < 50 nM | > 75% | < 50 nM
Cc1cc(-n2nc(N)c(=O)[nH]c2=O)cc(C)c1Cc1ccc2c(c1)C1(CCCC1)C(=O)N2 [Compound 150, 6-Amino-2-(3,5-dimethyl-4-((2′-oxospiro[cyclopentane-1,3′-indolin]-5′-yl)methyl)phenyl)-1,2,4-triazine-3,5(2H,4H)-dione] | < 50 nM | < 50% | < 50 nM | < 50% | 50 to 75% | < 50 nM | 50 to 75% | < 50 nM
CC(C)(O)c1cc(Oc2c(Cl)cc(-n3nc(N)c(=O)[nH]c3=O)cc2Cl)n[nH]c1=O [Compound 60, 6-amino-2-(3,5-dichloro-4-[[5-(2-hydroxypropan-2-yl)-6-oxo-1H-pyridazin-3-yl]oxy]phenyl)-4H-1,2,4-triazine-3,5-dione] | 250 to 1000 nM | < 50% | 1000 to 25000 nM | < 50% | > 75% | 1000 to 10000 nM | > 75% | 1000 to 10000 nM
Nc1nn(-c2cc(Cl)c(Oc3cc(C4CCc5ccccc5C4)c(=O)[nH]n3)c(Cl)c2)c(=O)[nH]c1=O (stereo not shown) [Compound 98] | 50 to 250 nM | < 50% | > 25000 nM | < 50% | < 50% | 50 to 250 nM | < 50% | > 10000 nM
Nc1nn(-c2cc(Cl)c(Oc3cc(C4(c5ccccc5)CC4)c(=O)[nH]n3)c(Cl)c2)c(=O)[nH]c1=O [Compound 107] | < 50 nM | < 50% | 1000 to 25000 nM | < 50% | 50 to 75% | 50 to 250 nM | < 50% | 250 to 1000 nM
O=c1cc(-c2ccc3ccccc3c2)c(Oc2c(Cl)cc(-n3ncc(=O)[nH]c3=O)cc2Cl)n[nH]1 [Compound 92-A] | < 50 nM | < 50% | 1000 to 25000 nM | 50 to 75% | < 50% | 250 to 1000 nM | < 50% | > 10000 nM

More lines, now with the values ahead:

EC50 [1] | Emax [1] | EC50 [2] | Emax [2] | Emax (THR beta) | EC50 (THR beta) | Emax (THR alpha) | EC50 (THR alpha) | SMILES
50 to 250 nM | < 50% | 50 to 250 nM | < 50% | 50 to 75% | < 50 nM | < 50% | 50 to 250 nM | Cc1cccc(-c2cc(Oc3c(Cl)cc(-n4ncc(=O)[nH]c4=O)cc3Cl)n[nH]c2=O)c1 [Compound 139]
< 50 nM | < 50% | 250 to 1000 nM | 50 to 75% | > 75% | 50 to 250 nM | > 75% | 250 to 1000 nM | CC(c1cc(Oc2c(Cl)cc(-n3nc(N)c(=O)[nH]c3=O)cc2Cl)n[nH]c1=O)C1CC(F)(F)C1 (stereo not shown) [Compound 61, 6-amino-2-[3,5-dichloro-4-([5-[1-(3,3-difluorocyclobutyl)ethyl]-6-oxo-1H-pyridazin-3-yl]oxy)phenyl]-4H-1,2,4-tri-azine-3,5-dione]
50 to 250 nM | < 50% | 250 to 1000 nM | 50 to 75% | > 75% | 50 to 250 nM | > 75% | 250 to 1000 nM | CC(C)(C)c1cc(Oc2c(Cl)cc(-n3nc(N)c(=O)[nH]c3=O)cc2Cl)n[nH]c1=O [Compound 73, 6-Amino-2-(4-((5-(t-butyl)-6-oxo-1,6-dihydropyridazin-3-yl)oxy)-3,5-dichlorophenyl)-1,2,4-triazine-3,5(2H, 4H)-dione]
< 50 nM | 50 to 75% | > 25000 nM | < 50% | > 75% | 50 to 250 nM | > 75% | 250 to 1000 nM | Cc1cc(-n2nc(C#N)c(=O)[nH]c2=O)cc(C)c1Cc1ccc2[nH]cc(C(C)C)c2c1 [Compound 3, 2-(4-((3-isopropyl-1H-indol-5-yl)methyl)-3,5-dimethylphenyl)-3,5-dioxo-2,3,4,5-tetrahydro-1,2,4-triazine-6-carbo-nitrile]
50 to 250 nM | < 50% | 250 to 1000 nM | < 50% | > 75% | 50 to 250 nM | 50 to 75% | 250 to 1000 nM | Nc1nn(-c2cc(Cl)c(Oc3cc(-c4ccccc4)c(=O)[nH]n3)c(Cl)c2)c(=O)[nH]c1=O [Compound 63, 6-amino-2-[3,5-dichloro-4-[(6-hydroxy-5-phenylpyridazin-3-yl)oxy]phenyl]-4H-1,2,4-triazine-3,5-dione]
250 to 1000 nM | 50 to 75% | 1000 to 25000 nM | > 75% | > 75% | 250 to 1000 nM | < 50% | > 10000 nM | Cc1cc(-n2nc(N)c(=O)[nH]c2=O)cc(C)c1Oc1cc(C(C)C)c(=O)[nH]n1 [Compound 38, 6-Amino-2-[4-[(5-isopropyl-6-oxo-1H-pyridazin-3-yl)oxy]-3,5-dimethylphenyl]-4H-1,2,4-triazine-3,5-dione]
< 50 nM | < 50% | 1000 to 25000 nM | 50 to 75% | 50 to 75% | 50 to 250 nM | < 50% | > 10000 nM | O=c1cnn(-c2cc(Cl)c(Oc3cc(-c4ccc5c(c4)CCCC5)c(=O)[nH]n3)c(Cl)c2)c(=O)[nH]1 [Compound 91, 2-(3,5-dichloro-4-((6-oxo-5-(5,6,7,8-tetrahydronaphthalen-2-yl)-1,6-dihydropyridazin-3-yl)oxy)phenyl)-1,2,4-triazine-3,5(2H,4H)-dione]
